This note sets out measurements from ChEMBL document CHEMBL1158183, “Use of self-organizing maps and molecular descriptors to predict the cytotoxic activity of sesquiterpene lactones” (2008).

The subject of the assay is KB. As to the kind of experiment: Cytotoxicity against human KB cells. Format: functional. To be noted: read-out: ED50 (the source's name).

For the compound `C=C1C(=O)O[C@@H]2[C@H]1[C@@H](O)C[C@H](C)[C@@H]1CCC(=O)[C@@]21C` [DESACETYLCONFERTIFLORIN], the EC50 was found to be 8.71 µM.

As to `C=C1C(=O)O[C@@H]2/C=C(\C)CC/C=C(\C)CC[C@@H]12` [COSTUNOLIDE], the EC50 was determined as 2.46 µM. The result for `C=C1C(=O)O[C@H]2[C@H]1[C@H](OC(=O)/C(C)=C\C)C[C@]1(CO1)[C@@H]1[C@H](OC(C)=O)C=C(C)[C@]21O` [EUPAROTIN ACETATE] reads 0.53 µM; that for `C=C1C(=O)O[C@@H]2/C=C(/C)[C@@]3(O)C=C[C@@](C)(C[C@@H](OC(=O)/C(=C\C)COC(C)=O)[C@@H]12)O3` [LIATRIN], 3.93 µM; that for `C=C[C@@]12COC(=O)C(=C)[C@@H]1[C@H]1OC(=O)C(=C)[C@@H]1[C@@H](OC(C)=O)C2` [VERNOLEPIN ACETATE], 8.49 µM. The result for `C=C1C(=O)O[C@H]2C[C@@]3(CO3)[C@@H]3C[C@H](OC(C)=O)C(=C)[C@]3(O)C[C@H]12` [ARCTOLIDE] reads 29 µM; that for `C=C1C(=O)O[C@H]2[C@H]1[C@@H](OC(=O)C=C(C)C)CC1=C[C@@H](C[C@@]3(C)O[C@H]23)OC1=O` [ELEPHANTIN], 3.22 µM; that for `C=C1C(=O)O[C@@H]2C[C@@H](C)[C@@H]3C=CC(=O)[C@@]3(C)[C@@H](O)[C@H]12` [HELENALIN], 0.76 µM. Turning to `C=C1C(=O)O[C@@H]2[C@H]3C(CO)=CC(=O)C3=C(C)C[C@@H](O)[C@@H]12` [LACTUCIN], the EC50 came to 260 µM. As for `C=C1C(=O)O[C@@H]2/C=C(\C)[C@@H](OC(C)=O)C/C=C(/C)C(O)[C@@H](OC(=O)/C(C)=C\C)[C@@H]12` (some centres undefined) [EUPATOCUNIN], the EC50 was found to be 0.27 µM. To `C=C1C(=O)O[C@H]2C[C@@H](C)[C@@H]3C=CC(=O)[C@@]3(C)C[C@H]12` [AROMATICIN] belongs 1.38 µM; to `C=C1C(=O)O[C@@H]2/C=C(\C)C[C@H](O)/C=C(\C)CC[C@@H]12` [TAMAULIPIN A], 5.08 µM; to `C=C[C@@]12COC(=O)C(=C)[C@@H]1[C@H]1OC(=O)C(=C)[C@@H]1[C@@H](OC(=O)C(=C)CO)C2` [VERNODALIN], 5 µM. The result for `C=C1C(=O)O[C@@H]2/C=C3\CCC4OC4(C[C@H](OC(=O)C(C)C)[C@@H]12)C(O)OC3` (some centres undefined) [VERNOMYGDIN] reads 4.12 µM; that for `C=C1C(=O)O[C@@H]2/C=C(\CO)CC/C=C(\CO)C[C@H](OC(=O)C(C)C)[C@@H]12` [ALATOLIDE], 4 µM; that for `C=C1C(=O)O[C@H]2C/C(C)=C/C[C@@H](OC(C)=O)/C(C)=C/[C@@H](OC(C)=O)[C@@H]12` [CHAMMISSONIN DIACETATE], 6.12 µM. Consider `C=C1C(=O)O[C@@H]2[C@H]1CC[C@H](C)[C@@H]1C[C@@H](O)C(=O)[C@@]21C`, for which the EC50 was determined as 10 µM.

Consider `C=C1C(=O)O[C@H]2[C@H]1[C@H](OC(=O)/C(C)=C/C)C[C@]1(CO1)[C@@H]1[C@H](O)C=C(C)[C@]21O` [EUPAROTIN], for which the EC50 stood at 0.56 µM. Regarding `C=C1[C@H](O)C[C@H](O)[C@]2(C)CC[C@@H]3[C@H](OC(=O)[C@H]3C)[C@@H]12` [ERIVANIN], the EC50 is 1.1 µM. `C=C[C@]12COC(=O)C(=C)[C@H]1[C@H](OC(C)=O)[C@H]1C(=C)C(=O)O[C@@H]1C2` [VERNOMENIN ACETATE]: the EC50 came out at 26.2 µM.

With `C=C1[C@@H]2[C@H]3OC(=O)C(=C)[C@@H]3CCC(=C)[C@@H]2C[C@@H]1O[C@@H]1O[C@H](CO)[C@@H](O)[C@H](O)[C@H]1O` [VERNOFLEXUOSIDE], the EC50 was 19 µM.

On to `C=C1C(=O)O[C@H]2C[C@@H](C)[C@@H]3C=CC(=O)[C@@]3(C)[C@H](O)[C@H]12` [MEXICANIN I], for which the EC50 worked out at 1.26 µM.

For the compound `C=C1C(=O)O[C@@H]2/C=C(/C)[C@@H](O)C[C@H]3O[C@]3(C)C[C@@H](OC(=O)/C(C)=C\C)[C@@H]12` [EPOXYNOBILIN], the EC50 amounted to 0.99 µM. For `C=C1C(=O)O[C@@H]2/C=C(\C)CC/C=C(\C)C[C@@H](O)[C@@H]12` [EUPATOLIDE], the EC50 was determined as 5 µM. As for `C=C1C(=O)O[C@@H]2/C=C(\C)CC/C=C(/C)C[C@@H](OC(=O)/C(=C/CO)CO)[C@@H]12` [EUPATORIOPICRIN], the EC50 was found to be 3.3 µM. To `C=C1C(=O)O[C@@H]2/C=C(\C)[C@@H](OC(C)=O)C/C=C(\C)C(OC(=O)[C@]3(C)O[C@@H]3C)C(O)[C@@H]12` (some centres undefined) [EUPATOCUNOXIN] belongs 4.04 µM; to `C=C1C(=O)O[C@@H]2[C@H]1CC[C@H](C)[C@@H]1C=CC(=O)[C@@]21C` [AMBROSIN], 1.83 µM.

Take `C=C1C(=O)O[C@H]2C[C@H](C)[C@@H]3CC(=O)C(C)=C3C[C@H]12` [XERANTOLIDE]: the EC50 stood at 6.1 µM. In the case of `C=C[C@@]12COC(=O)C(=C)[C@@H]1[C@@H](O)[C@@H]1C(=C)C(=O)O[C@H]1C2` [VERNOMENIN], the EC50 was 127 µM. To `C=C[C@@]12COC(=O)C(=C)[C@@H]1[C@H]1OC(=O)C(=C)[C@@H]1[C@@H](OC(=O)C(=C)C)C2` [VERNOLEPIN METHACRYLATE] belongs 1.22 µM; to `C=C1[C@@H]2[C@H]3OC(=O)C(=C)[C@@H]3CCC(=C)[C@H]2C[C@@H]1OC(=O)C=C(C)C` [VERNOFLEXIN], 4.3 µM.

For the compound `C=C1C(=O)O[C@@H]2/C=C(\CO)CC/C=C(\C)C[C@H](O)[C@@H]12` [SALONITENOLIDE], the EC50 was 9.1 µM. On to `C=C1C(=O)O[C@@H]2[C@H]1CC[C@H](C)[C@]1(O)CCC(=O)[C@@]21C` [CORONOPILIN], for which the EC50 stood at 5.49 µM. With `C=C1C(=O)O[C@H]2C=C(C)[C@H]3[C@@H](OC(C)=O)C[C@@](C)(O)[C@@H]3C[C@H]12` [GAILLARDIN], the EC50 amounted to 7.52 µM.

Turning to `C=C1C(=O)O[C@H]2/C=C(\C)C(=O)C/C=C(/C)C[C@H](OC(=O)/C(C)=C\C)[C@@H]12` [DEHYDRONOBILIN], the EC50 was determined as 2.7 µM.

With `C=C1C(=O)O[C@@H]2[C@H]1CC[C@H](C)[C@]1(O)C=CC(=O)[C@@]21C` [PARTHENIN], the EC50 is 1.3 µM. To `C=C1C(=O)O[C@@H]2/C=C(/C)[C@@H](OC(C)=O)C[C@H](O)/C(C)=C\[C@@H](OC(=O)[C@]3(C)O[C@@H]3C)[C@@H]12` [EUPACUNOXIN] belongs 5 µM; to `C=C[C@@]12COC(=O)C(=C)[C@@H]1[C@H]1OC(=O)C(=C)[C@@H]1[C@@H](O)C2` [VERNOLEPIN], 6.52 µM; to `C=C(C)C(=O)O[C@H]1CC2=C[C@@H](C[C@@]3(C)O[C@@H]3[C@H]3OC(=O)C(=C)[C@@H]31)OC2=O` [ELEPHANTOPIN], 2.51 µM. On to `C=C1C(=O)O[C@H]2[C@H]1[C@H](OC(=O)/C(C)=C\C)C[C@]1(CO1)[C@@H]1[C@H](O)[C@H]3O[C@@]3(C)[C@]21O` [EUPATOROXIN], for which the EC50 was 7.14 µM. With `C=C1C(=O)O[C@H]2C[C@@]3(C)O[C@@H]3CC/C(C(=O)OC)=C\C[C@H]12` [HIRUSUTOLIDE], the EC50 was 7 µM. To `C=C1CC(OC(=O)/C(C)=C/C)C2C(=C)C(=O)OC2/C=C(\C)C(O)CC1O` (centres undefined) [HYDROXYISONOBILIN] belongs 3.7 µM; to `C=C1C(=O)O[C@@H]2/C=C(\C)[C@H](O)C/C=C(\C)CC[C@@H]12` [TAMAULIPIN B], 10.5 µM; to `C=C1C(=O)O[C@@H]2/C=C(/CO)[C@@H](OC(C)=O)C[C@H](O)/C(C)=C\[C@@H](OC(=O)/C(C)=C/C)[C@@H]12` [EUPACUNOLIN], 8.8 µM. Consider `C=C1C(=O)O[C@@H]2C3O[C@]3(C)CC/C=C(\C)CC[C@@H]12` (some centres undefined), for which the EC50 came out at 5.3 µM.

In the case of `C=C1C(=O)O[C@H]2CC3=C[C@@H](C[C@]4(C)O[C@@H]4[C@@H](O)[C@H]12)OC3=O` [ELEPHANTOL], the EC50 stood at 123 µM.

Turning to `C=C1C(=O)O[C@H]2[C@H]1[C@H](OC(=O)/C(C)=C\C)C[C@](O)(CCl)[C@@H]1[C@H](O)[C@H]3O[C@@]3(C)[C@]21O` [EUPACHLOROXIN], the EC50 was 8.39 µM. Turning to `C=C1C(=O)O[C@H]2[C@H]1[C@H](OC(=O)/C(C)=C\C)C[C@@]1(CO1)[C@@H]1[C@H](O)[C@H]3O[C@@]3(C)[C@]21O`, the EC50 came out at 0.63 µM. To `C=C1C(=O)O[C@H]2[C@H]1[C@H](OC(=O)/C(C)=C\C)CC(=C)[C@@H]1[C@H](O)[C@H]3O[C@@]3(C)[C@@]12O` [EUPATUNDIN] belongs 1.04 µM; to `C=C1C(=O)O[C@@H]2[C@H]3C(CO)=CC(=O)C3=C(C)CC[C@@H]12` [DEOXYLACTUCIN], 3.1 µM. For `C=C1C(=O)O[C@H]2[C@H]1[C@H](OC(=O)/C(C)=C\C)C[C@](O)(CCl)[C@@H]1[C@H](O)C=C(C)[C@]21O` [EUPACHLORIN], the EC50 came to 0.51 µM. Turning to `C=C1C(=O)O[C@H]2C[C@@H](C)[C@@H]3C=CC(=O)[C@@]3(C)[C@H](OC(C)=O)[C@H]12` [LINIFOLIN A], the EC50 came to 2 µM. To `C=C1[C@@H]2[C@H]3OC(=O)C(=C)[C@@H]3CCC(=C)[C@@H]2C[C@@H]1O[C@@H]1O[C@H](COC(C)=O)[C@@H](OC(C)=O)[C@H](OC(C)=O)[C@H]1OC(C)=O` [VERNOFLEXUOSIDE TETRA ACETYL] belongs 8.75 µM. The result for `C=C1C(=O)O[C@H]2[C@H]1[C@H](OC(=O)/C(C)=C\C)C[C@](O)(CCl)[C@@H]1[C@H](OC(C)=O)C=C(C)[C@]21O` [EUPACHLORIN ACETATE] reads 0.35 µM.
